Literature values in patent publication US20210251886A1, “ORAL MUCOSAL DELIVERY SYSTEMS COMPRISING MONOPHASIC CONCENTRATE OF TERIPARATIDE” (ZIM LABORATORIES LIMITED, priority 2018, published 2021).
Where two headings read alike, the source gives them in different places.

Settings: dogs

In the case of `CC[C@H](C)[C@H](NC(=O)[C@H](CCC(=O)O)NC(=O)[C@H](CO)NC(=O)[C@@H](NC(=O)[C@@H](N)CO)C(C)C)C(=O)N[C@@H](CCC(N)=O)C(=O)N[C@@H](CC(C)C)C(=O)N[C@@H](CCSC)C(=O)N[C@@H](Cc1cnc[nH]1)C(=O)N[C@@H](CC(N)=O)C(=O)N[C@@H](CC(C)C)C(=O)NCC(=O)N[C@@H](CCCCN)C(=O)N[C@@H](Cc1cnc[nH]1)C(=O)N[C@@H](CC(C)C)C(=O)N[C@@H](CC(N)=O)C(=O)N[C@@H](CO)C(=O)N[C@@H](CCSC)C(=O)N[C@@H](CCC(=O)O)C(=O)N[C@@H](CCCN=C(N)N)C(=O)N[C@H](C(=O)N[C@@H](CCC(=O)O)C(=O)N[C@@H](Cc1c[nH]c2ccccc12)C(=O)N[C@@H](CC(C)C)C(=O)N[C@@H](CCCN=C(N)N)C(=O)N[C@@H](CCCCN)C(=O)N[C@@H](CCCCN)C(=O)N[C@@H](CC(C)C)C(=O)N[C@@H](CCC(N)=O)C(=O)N[C@@H](CC(=O)O)C(=O)N[C@H](C(=O)N[C@@H](Cc1cnc[nH]1)C(=O)N[C@@H](CC(N)=O)C(=O)N[C@@H](Cc1ccccc1)C(=O)O)C(C)C)C(C)C` [PTH (1-34)], the bioavailability (buccal route) is listed as “about 3.3%” and the bioavailability (oral route) is listed as 4.8%.
